PubChem BioAssay AID1996
Converted amounts (≈) assume the structure as drawn.

Conditions: buffer; pH 7.4; 200.0 µM

Row | SMILES | solubility kinetic [µg/mL]
1 | CCOC(=O)CSc1nc2ccccc2n2c(C)nnc12 | > 45.4
2 | Cc1ccc(C(=O)CSc2nc(C(C)C)nc3ccccc23)cc1 | 0.6 (≈ 1.78 µM)
3 | C=CCn1c(SCC(N)=O)nnc1-c1cnccn1 | > 41.4
4 | CC1=CC(C)(C)NC(=S)N1c1cc(C)cc(C)c1 | 8.7 (≈ 33.4 µM)
5 | Cc1nc(Nc2ccccc2)sc1C(=O)c1ccccc1 | 2.1 (≈ 7.13 µM)
6 | Cn1c(N)c(C(=O)COC(=O)C2=NNC(=O)CC2)c(=O)n(C)c1=O | > 50.6
7 | CCN(C(=O)COC(=O)c1cnccn1)c1cccc2ccccc12 | > 50.3
8 | CC(=O)Nc1ccc(-c2csc(NC(=O)CCNC(=O)c3ccco3)n2)cc1 | 11.7 (≈ 29.4 µM)
9 | CC(C)(C)N(Cc1ccccc1)C(=O)COC(=O)C1CCCCC1 | 24.4 (≈ 73.6 µM)
10 | Cl.Nc1ccn([C@H]2C[C@H](O)[C@@H](CO)O2)c(=O)n1 | > 39.6
11 | C/C(=N\NC(=O)CCCNc1cccc(C)c1)c1ccncc1 | > 46.6
12 | O=C(NCCOC(=O)c1ccccc1)c1ccccc1 | > 40.4
13 | CCCCNC(=O)C1CCCN(S(=O)(=O)CC)C1 (stereo unspecified) | > 41.5
14 | CCOC(=O)c1c(O)c(O)c(C(=O)OCC)n1-c1ccccc1 | > 47.9
15 | COc1ccc2[nH]cc(C(O)CN3CCN(c4ccccc4F)CC3)c2c1 (stereo unspecified) | > 55.4
16 | Cn1c(=O)oc2cc(S(=O)(=O)NCc3cccnc3)ccc21 | 30.5 (≈ 95.5 µM)
17 | Cc1ccc(NC(=O)OCCNC(=O)c2ccncc2)cc1 | 44.4 (≈ 148 µM)
18 | NS(=O)(=O)c1ccc(CCNC(=O)CN2C(=O)NC(c3ccccc3)(c3ccccc3)C2=O)cc1 | > 73.9
19 | CS(=O)(=O)Nc1ccccc1NS(C)(=O)=O | > 39.6
20 | Cn1cccc1C(=O)NCc1ccc(S(N)(=O)=O)cc1 | > 44
21 | O=C(CN1CCN(C(=O)c2ccccc2)CC1)NC(=O)NCCC1=CCCCC1 | > 59.8
22 | CN1C[C@@H]2C[C@@H](c3cccn3-c3nccs3)N3CCC[C@@]23C1=O | 47.2 (≈ 144 µM)
23 | Cc1ccc(S(=O)(=O)NC(=NC(C)C)c2ccccc2)cc1 | > 47.5
24 | CC12CC3CC(C)(C1)CC(C(=O)NCc1cccnc1)(C3)C2 | > 44.8
25 | Cc1noc(NS(=O)(=O)c2ccc(NC(=O)c3ccc(F)cc3)cc2)c1C | > 58.4
26 | O=C(OCC(=O)N1CCc2ccccc21)c1ccc(Br)o1 | 3.7 (≈ 10.6 µM)
27 | COC(=O)Cn1cc([N+](=O)[O-])nc1C | > 29.9

More lines, now with the values ahead:

Row | solubility kinetic [µg/mL] | SMILES
28 | 14.9 (≈ 53 µM) | Cc1ccc(C)c(N2C(=O)C3C4C=CC(CC4)C3C2=O)c1 (stereo unspecified)
29 | 2.9 (≈ 7.06 µM) | COc1ccc(C(=O)Nc2ccc(Cl)c(S(=O)(=O)N3CCOCC3)c2)cc1
30 | > 45.8 | CCCN(CC1CC1)C(=O)COC(=O)c1ccc(C)cc1O
31 | 21.7 (≈ 75.6 µM) | Cc1nc(Cl)sc1C(=O)Nc1ccccc1Cl
32 | > 49.7 | O=C(CNC(=O)c1ccc(Cl)cc1Cl)NCC1CCCO1 (stereo unspecified)
33 | > 40.4 | Cc1ccc(-c2nonc2NC(=O)c2ccco2)cc1
34 | 12.2 (≈ 38.4 µM) | CSc1ccccc1NC(=O)COC(=O)c1ccc(O)cc1
35 | > 56.5 | Cl.O=C(NCCN1CCOCC1)c1ccccc1OCc1ccccc1
36 | > 52.4 | CC(C)=CC(=O)Nc1ccc(S(=O)(=O)Nc2onc(C)c2C)cc1
37 | 30.5 (≈ 132 µM) | O=C(CC1CCCCC1)NCc1ccccc1
38 | 4.1 (≈ 12.2 µM) | Cc1ccc(C(=O)NC(C(=O)NC2CCCC2)c2ccccc2)cc1 (stereo unspecified)
39 | 2.8 (≈ 11.8 µM) | CC(=O)Nc1nc2cccc([N+](=O)[O-])c2s1
40 | > 41.9 | CCn1cnc2cc(NC(=O)c3ccc(C)cc3)ccc21
41 | 8.5 (≈ 25.4 µM) | O=C(NC12CC3CC(CC(C3)C1)C2)c1cncc(Br)c1
42 | 1 (≈ 3.43 µM) | N#CCC(=O)Nc1ncc(Cc2ccccc2Cl)s1
43 | 23.3 (≈ 106 µM) | CCCCC(=O)Nc1ccccc1C(C)C
44 | > 41 | O=C(c1c(F)cccc1F)N1CCCc2ccccc21

Row | solubility kinetic [µg/mL] | SMILES
45 | > 44 | O=C(Nc1ccccc1Br)c1cc[n+]([O-])cc1
46 | 42.3 (≈ 116 µM) | CCCNC(=O)CNC(=S)N(Cc1ccccc1F)C1CCCCC1
47 | 13.7 (≈ 37.7 µM) | CN(CCOc1ccccc1)CC(=O)Nc1cc([N+](=O)[O-])ccc1Cl
48 | 47.2 (≈ 132 µM) | Cc1ccc(CN(Cc2ccco2)C(=S)NCC(=O)NC2CC2)cc1
49 | 29.3 (≈ 130 µM) | CSc1ncc(-c2ccc(Cl)cc2)[nH]1
50 | 38.1 (≈ 130 µM) | CSc1ncccc1C(=O)NCc1ccccc1Cl
51 | < 0.7 | COc1c(C)cc(Br)cc1C(=O)Nc1ccccc1C
52 | 19.9 (≈ 81.8 µM) | CCC(=Nc1ccccc1)C1=C(O)CCCC1=O
53 | > 39 | O=C(Nc1ccc(Cl)cc1Cl)C1CCCO1 (stereo unspecified)
54 | > 52.1 | CC1CN(C(=O)COC(=O)c2cnc(Cl)c(Cl)c2)CC(C)O1 (stereo unspecified)
55 | > 42.5 | Cc1ccc(NC(=O)CNC(=O)c2cccc(C)c2)nc1
56 | 46.3 (≈ 136 µM) | COc1ccc(-n2c(C)cc(C(=O)CN3CCC(C)CC3)c2C)cc1
57 | > 46.8 | COc1cc(OC)cc(C(=O)N2CC(=O)Nc3ccccc32)c1
58 | 0.3 (≈ 1.01 µM) | Cc1cc(OC2CCCCC2)nc(NCc2ccccc2)n1
59 | 49.2 (≈ 141 µM) | CC1(NC(=O)CCc2nc3ccccc3c(=O)[nH]2)CCS(=O)(=O)C1 (stereo unspecified)
60 | > 41.5 | Cc1ccc(C(=O)NCCC(=O)N2CCOCC2)cc1
61 | 3.1 (≈ 8.83 µM) | O=C1CN(C(=O)COc2ccc(Cl)cc2Cl)c2ccccc2N1
